Legend:
Experiment in all cases: relative viability (nuclei count vs DMSO), 5 days (fraction); higher = more cells survive
AZ505 + Navitoclax = compound: C1CCC(CC1)N(CCNCCC2=C3C(=C(C=C2)O)NC(=O)CO3)C(=O)CCNCCC4=CC(=C(C=C4)Cl)Cl [AZ505] + CC1(C)CCC(c2ccc(Cl)cc2)=C(CN2CCN(c3ccc(C(=O)NS(=O)(=O)c4ccc(N[C@H](CCN5CCOCC5)CSc5ccccc5)c(S(=O)(=O)C(F)(F)F)c4)cc3)CC2)C1 [Navitoclax] (partner 0.5 µM)
In short: (§1)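 Lung cancer cell lines in 1536-well plates got either a single drug or a fixed anchor-drug dose together with five library-drug doses (not always all listed) in √10 steps, by pin tool, on the day after seeding. Nuclei were counted after 5 days, and relative viability is the treated-to-vehicle ratio of nuclei counts. Values are medians of duplicate plates.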

AZ505 + Foretinib = compound: C1CCC(CC1)N(CCNCCC2=C3C(=C(C=C2)O)NC(=O)CO3)C(=O)CCNCCC4=CC(=C(C=C4)Cl)Cl [AZ505] + COc1cc2c(Oc3ccc(NC(=O)C4(C(=O)Nc5ccc(F)cc5)CC4)cc3F)ccnc2cc1OCCCN1CCOCC1 [Foretinib] (partner 0.25 µM)
In short: as §1

Dactolisib = compound: Cn1c(=O)n(-c2ccc(C(C)(C)C#N)cc2)c2c3cc(-c4cnc5ccccc5c4)ccc3ncc21 [Dactolisib]
In short: (§2)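 Lung cancer cell lines in 1536-well plates were kept overnight at 37 °C, then pinned with five library-drug doses (not always all listed) spaced by √10 on vehicle-anchored plates. After 5 days without medium change, cells were fixed, permeabilised and Hoechst-stained in one step, imaged at 4×, and nuclei were counted with MetaXpress. Viability is treated-well nuclei divided by vehicle-well nuclei, taken as the median over plates. Plates passed only with control CV below 25% and at least one doubling.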

AZ505 = compound: C1CCC(CC1)N(CCNCCC2=C3C(=C(C=C2)O)NC(=O)CO3)C(=O)CCNCCC4=CC(=C(C=C4)Cl)Cl [AZ505]
In short: as §2

Cell Line	relative viability (AZ505 + Navitoclax; first compound 0.08 µM)	relative viability (AZ505 + Navitoclax; first compound 0.253 µM)	relative viability (AZ505 + Navitoclax; first compound 0.8 µM)	relative viability (AZ505 + Navitoclax; first compound 2.53 µM)	relative viability (AZ505 + Navitoclax; first compound 8 µM)	relative viability (AZ505 + Foretinib; first compound 0.08 µM)	relative viability (AZ505 + Foretinib; first compound 0.253 µM)	relative viability (AZ505 + Foretinib; first compound 0.8 µM)	relative viability (AZ505 + Foretinib; first compound 2.53 µM)	relative viability (AZ505 + Foretinib; first compound 8 µM)	relative viability (Dactolisib; 0.002 µM)	relative viability (Dactolisib; 0.006325 µM)	relative viability (Dactolisib; 0.02 µM)	relative viability (Dactolisib; 0.06325 µM)	relative viability (Dactolisib; 0.2 µM)	relative viability (AZ505; 0.08 µM)	relative viability (AZ505; 0.253 µM)	relative viability (AZ505; 0.8 µM)	relative viability (AZ505; 2.53 µM)	relative viability (AZ505; 8 µM)
NCI-H441	0.691	0.682	0.545	0.716	0.505	0.909	0.97	1.09	0.876	1.06	1.28	1.02	0.925	0.48	0.298	0.865	1.09	1.07	0.997	1.24
LOU-NH91	0.612	0.694	0.657	0.657	0.804	0.872	0.931	0.909	0.869	0.968	0.994	0.997	0.885	0.613	0.623	0.9	0.937	0.967	0.983	1.01
NCI-H3122	1	1.02	1.03	1.02	1	0.889	0.993	0.837	0.964	1.05	0.993	1.01	0.981	0.99	0.751	0.972	1.01	0.975	0.931	1.02
NCI-H460	1.02	1.19	0.965	1.11	1.2	0.976	1.01	0.982	1.03	0.966	1.04	0.989	0.984	0.541	0.488	0.991	0.99	0.966	1	0.976
NCI-H1793	0.352	0.405	0.455	0.396	0.428	0.627	0.735	0.758	–	0.572	0.807	0.569	0.474	0.242	0.241	0.805	0.883	0.83	0.768	0.976
NCI-H1734	0.802	0.836	0.755	0.736	0.774	0.785	0.811	0.754	0.751	0.829	1.04	0.887	0.864	0.384	0.313	0.905	0.914	0.952	0.971	0.958
LXF-289	0.891	–	0.919	0.881	0.935	0.887	0.972	0.923	0.96	0.956	1.07	1.04	1	0.998	0.84	0.967	0.98	0.988	1.02	1.01
H3255	0.439	0.526	0.529	0.698	0.615	0.81	1.05	0.924	0.872	1.19	1.09	0.908	0.91	0.784	0.627	0.901	1	1.01	1.06	1.03
201T	1.19	1.24	1.17	1.18	1.19	1.01	1.14	1.07	1.06	1.19	1.02	1.01	0.992	0.863	0.636	0.962	0.998	0.98	0.974	1.01
NCI-H2126	0.818	0.88	0.83	0.857	0.863	0.892	1.16	1.19	1.1	1.13	1.09	0.936	0.892	0.638	0.488	0.993	0.945	0.971	0.984	0.988
HOP-62	0.946	1.1	0.972	1.03	0.992	1.06	1.13	1.03	1.08	1.13	1.05	1.03	1.02	0.595	0.647	0.892	1.09	1.14	0.995	1.08
CAL-12T	1.12	1.15	1.21	1.29	1.24	1.03	1.11	1.18	1.22	1.36	1.01	0.976	0.721	0.342	0.323	0.909	0.941	0.967	0.956	1.03
NCI-H520	1.05	1.23	1.12	1.22	1.07	0.625	0.756	0.76	0.772	0.745	1.01	0.777	0.764	0.243	0.2	0.92	1.07	0.86	1.08	1.04
NCI-H1755	0.949	1.06	0.967	1.01	0.971	0.817	0.913	0.893	0.93	0.9	1.04	0.976	0.963	0.887	0.742	0.93	1.05	0.962	0.98	0.958
NCI-H2023	0.958	0.945	0.997	1.2	0.959	0.743	0.916	0.869	0.854	0.776	0.827	0.875	0.579	0.166	0.12	0.901	0.936	0.931	0.923	0.957
NCI-H2009	1.21	1.14	1.1	1.19	1.12	1.18	1.21	1.19	1.17	1.17	1.05	0.983	1.04	0.598	0.366	0.987	0.986	0.998	0.921	0.952
